Literature values, collected in patent US20220273584A1, “Film Formulation Comprising Carriers” (Klaria Pharma Holding AB, priority 2019, published 2022).

Settings: at a concentration of 1-10%

- permeability with porcine buccal epithelium: enhanced permeability
SMILES: CCCCCCCC/C=C\CCCCCCCC(=O)O [Oleic acid, oleic acid]
